Assay: Pharmacokinetic study, intravenous 5 mg/kg
Format: in vivo
Settings: CD1 mice, 5 mg/kg, FIG. 8B
Description: Pharmacokinetic studies of the compound of Example 1 (i.e. CC-006) and previously disclosed compounds EPZ004777, CC001 (see U.S. 2014/0051654) and FED1 were performed in CD1 mice following intravenous administration, as detailed in Table 1.
Mean plasma concentration-time profiles representative of the compound of Example 1 (i.e. CC-006) after intravenous dosing (5 mg kg^−1) are shown in FIG. 8A (data represent the mean and s.d. (n=3)). […] From the pharmacokinetic properties, the compound of Example 1 (i.e. CC-006) has potential for use in treatment using intravenous administration due to its long half-life, as compared to subcutaneous administration.

## CC(C)N(C[C@H]1C[C@@H](n2ccc3c(N)ncnc32)[C@H](O)[C@@H]1O)[C@H]1C[C@@H](CCc2nc3cc(C(C)(C)C)ccc3[nH]2)C1 [CC001, reference compound]
  half-life (T1/2): longest half-life of the compounds tested

From patent publication US9458165B2, “DOT1L inhibitors” (Dana-Farber Cancer Institute, Inc., priority 2014, dated 2016)
